Results published in US20220036967A1, “A METHOD TO DETERMINE AGENTS FOR PERSONALIZED USE” (priority 2018, published 2022).

Tested on: liver metastasis of a breast carcinoma
Experiment: treatment of the individual patient chosen according to the test results
Assay type: in vivo, human
Source text: Biopsy material of a liver metastasis of a breast carcinoma has been obtained from a patient.

CCc1c2c(nc3ccc(OC(=O)N4CCC(N5CCCCC5)CC4)cc13)-c1cc3c(c(=O)n1C2)COC(=O)[C@]3(O)CC [Irinotecan]
tumor marker CA15.3 after treatment (before treatment 22,230 units/ml, infused in two-weeks intervals according to standard protocols): 1513 units
malignant ascites (infused in two-weeks intervals): markedly reduced

Keytruda: PDL Antibody therapy
tumor markers in controls (100 mg): did not change tumor markers
